Source: patent US20250177366A1, “COMPOSITIONS AND METHODS FOR ALLEVIATING PAIN AND REDUCING ADVERSIVENESS OF STIMULI” (UNIVERSITY OF WASHINGTON, priority 2021, published 2025)

Legend:
larval zebrafish = experiment: Light/dark preference (phototaxis) assay; assay type: in vivo, Zebrafish (Danio rerio); conditions: for light/dark preference: last two minutes of each trial, last four trials
Protocol: Following this, whether the effects of AS1 were restricted to somatosensation or were generalizable to other aversive stimuli were tested. Thus, the effects of AS1 on light/dark preference were tested. Zebrafish larvae prefer white light environments to dark environments and this preference is inhibited by anxiolytics, analagous to studies in rodents (Lau et al., Proc. Natl. Acad. Sci. U.S.A 2011; 108:2581-2586; Burgess et al., Curr. Biol. 2010; 20:381-386). To measure light/dark preference, larval zebrafish were placed in a square arena and given the choice between a bright white light and total darkness, and the number of larvae on each side was quantified at 30 second intervals. Five 4-minute trials were performed, where the light and dark sides of the arena were reversed between trials. […] Given the precise control over stimulus luminosity in this assay, the effects of altering the intensity of the dark stimulus were explored next. In this gradient version of the phototaxis assay, larval zebrafish were given the choice between a bright white environment and one of six potential shades of darkness, ranging from light gray to solid black. […] This implies that the valence of non-painful noxious stimuli is precisely encoded in an intensity-dependent manner, and that AS1 exerts its effects in proportion to the intensity of the stimulus.
Light/dark preference (phototaxis) assay. In the light/dark preference assay, randomly-selected 6 dpf larval zebrafish (N of 30 to 40) were carefully pipetted onto a 10 cm square petri dish using a 10 mL pipette pump equipped with a glass wide-bored Pasteur pipet. As much E2 media as possible was carefully removed using the same pipet. For single incubation experiments, 30 mL of 1× solutions of the control or test chemical was added to each petri dish, and fish were incubated for 10 minutes at 28.5° C. For double incubation experiments, 15 mL of 1× solutions containing control (DMSO) or test chemicals was added to the larvae-containing petri dish. Following a ten-minute incubation period, 15 mL of the second incubation solution (1× control or test chemical +/−2× AS1) was added to the petri dish, and the fish were incubated for a second ten minute block. The final concentration of DMSO in all solutions was 1%. In all double-incubation experiments, the final concentration of AS1 was 2.5 μM. These petri dishes were then positioned over a horizontally-oriented computer monitor displaying a PowerPoint presentation. For standard light/dark preference assays, a blank white slide was initially presented for one minute, after which the presentation would automatically advance to a slide in which half of the display was black. The petri dish with larvae was positioned such that exactly half was directly over the dark side, and the other half was directly over the light side. After four minutes, the presentation automatically advanced to a slide in which the black and white halves switched places. A total of five four-minute trials, with the dark/light halves automatically switching position between trials, were recorded. For the gradient phototaxis assay, experiments were performed identically, except that the “dark” half of the powerpoint presentation was one of six shades of gray.
In all experiments, an initial still frame of video was taken during the minute where the blank slide was presented in order to quantify the total number of fish in the experiment. Following this, still frames were taken at 30 second intervals for each trial ([…]), and the number of fish present in the light half of the arena were counted. To generate the graphs that looked at swimming patterns over time in a trial (e.g., FIG. 3D), the average percentage of fish in the light at each time point (T=0, T=30, etc.) was calculated across all five trials. […]

trigeminal neurons = experiment: CaMPARI neuronal activity assay; assay type: in vivo, Zebrafish (Danio rerio); conditions: 5 μM AS1; 28.5° C. or 37.5° C.
Excerpt: Brain regions associated with dopaminergic circuitry are specifically activated in the concurrent presence of AS1 and noxious stimuli. It was next sought to determine in an unbiased manner where in the zebrafish nervous system AS1 was exerting its effects by examining neuronal activity in the context of noxious stimuli. […] Many analgesics can act upon multiple different levels of pain transduction circuitry. For example, MORs can be found upon peripheral somatosensory neurons, spinal cord neurons, and numerous neuronal populations in the brain, and both exogenous and endogenous opioids can modulate the activity of any of these neurons (Corder et al., Annu. Rev. Neurosci. 2018; 41: 453-473). To investigate whether peripheral somatosensory neurons were also influenced by AS1, a neuronal activity assay upon transgenic zebrafish expressing the genetically-encoded calcium indicator CaMPARI in all neurons was performed. This fluorescent protein permanently photoconverts from green to red in the presence of a 405 nm light and high calcium (a proxy for neuronal activity), allowing “snapshots” of neuronal activity at a single time point (Fosque et al., Science. 2015; 347(6223):755-760). Fish were exposed to conditions of 28.5° C. or 37.5° C. with or without AS1 in the presence of a blue light, and then the trigeminal ganglia (TG) were surveyed for photoconverted neurons. […]

CC(C)c1ccc(C(=O)Nc2ccncc2)cc1 [AS1, 4-propan-2-yl-N-pyridin-4-ylbenzamide]
light/dark preference (larval zebrafish; 1 μM AS1): significantly prefer the light side of the arena
gradient phototaxis: choice between bright white (shade 1) and darker shades 2-7 (larval zebrafish; 2.5 μM AS1): increasingly prefer the contrasting dark shade
light/dark preference (larval zebrafish; 2.5 μM AS1): significantly prefer the dark
light/dark preference, dose dependence (larval zebrafish; AS1-treated vs vehicle-treated larvae): reversed light/dark preference in a dose-dependent manner
Number of photoconverted trigeminal neurons, AS1-treated vs control (trigeminal neurons): No significant difference
